Assay results: ChEMBL document CHEMBL1201862, “PubChem BioAssay data set” (2004)
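Step 1: Grow cells in 96-well plates. Step 2: Expose to compound for 48 hours at 5 concentrations. Step 3: Interpolate endpoints linearly; if unreached, use highest concentration. At the GI50, growth is halved.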 Active and inactive are the calls of the source. No stated cut-off is given here; in the data, active = GI50 up to about 1.1 µM and inactive = higher.

Legend:
Assay in all cases: inhibition of tumour cell growth, NCI panel, 48 h
[1] = test system: A549
[2] = test system: HOP-92
[3] = test system: SF-268
[4] = test system: CAKI-1
[5] = test system: ACHN
[6] = test system: HCT-116
[7] = test system: A498
[8] = test system: SF-539
[9] = test system: EKVX
[10] = test system: COLO 205
[11] = test system: CCRF-CEM
[12] = test system: NCI-H460
[13] = test system: TK-10
[14] = test system: K562
[15] = test system: OVCAR-3
[16] = test system: SK-MEL-5
[17] = test system: HCT-15
[18] = test system: NCI-H23
[19] = test system: HCC 2998
[20] = test system: Malme-3M

SMILES | GI50 [1] | GI50 [2] | GI50 [3] | GI50 [4] | GI50 [5] | GI50 [6] | GI50 [7] | GI50 [8] | GI50 [9] | GI50 [10] | GI50 [11] | GI50 [12] | GI50 [13] | GI50 [14] | GI50 [15] | GI50 [16] | GI50 [17] [µM] | GI50 [18] | GI50 [19] | GI50 [20]
NC1=NC2=C(CCCC2)C(c2cccs2)S1 (centres undefined) | 93.3 µM (inactive) | 47.8 µM (inactive) | 95.1 µM (inactive) | > 100 µM (inactive) | > 100 µM (inactive) | > 100 µM (inactive) | 72.6 µM (inactive) | > 100 µM (inactive) | > 100 µM (inactive) | > 100 µM (inactive) | 55 µM (inactive) | > 100 µM (inactive) | > 100 µM (inactive) | 56.9 µM (inactive) | 59.8 µM (inactive) | 54.5 µM (inactive) | > 100 | > 100 µM (inactive) | > 100 µM (inactive) | 92.9 µM (inactive)
O=C1C(=O)N(c2ccc(Cl)cc2Cl)C(=O)C(=O)C1c1nc2ccccc2o1 | > 100 µM (inactive) | > 100 µM (inactive) | > 100 µM (inactive) | > 100 µM (inactive) | > 100 µM (inactive) | > 100 µM (inactive) | > 100 µM (inactive) | > 100 µM (inactive) | > 100 µM (inactive) | > 100 µM (inactive) | 93.8 µM (inactive) | > 100 µM (inactive) | > 100 µM (inactive) | > 100 µM (inactive) | > 100 µM (inactive) | > 100 µM (inactive) | > 100 | > 100 µM (inactive) | > 100 µM (inactive) | > 100 µM (inactive)
CSc1ccc(-c2cn3ccsc3n2)c(O)c1 | > 90.8 µM (inactive) | 47.3 µM (inactive) | 36.7 µM (inactive) | > 100 µM (inactive) | > 82.6 µM (inactive) | 30.3 µM (inactive) | > 86.3 µM (inactive) | 32.7 µM (inactive) | > 81.3 µM (inactive) | > 44.5 µM (inactive) | 16.1 µM (inactive) | 13.6 µM (inactive) | 61.8 µM (inactive) | 26.4 µM (inactive) | 36.7 µM (inactive) | 41 µM (inactive) | 17.6 | 48.3 µM (inactive) | > 60 µM (inactive) | > 61.1 µM (inactive)
COC(=O)c1sc2c(=O)c(C(=O)OC)c(C(=O)OC)sc2c(=O)c1C(=O)OC | > 100 µM (inactive) | > 100 µM (inactive) | > 62.7 µM (inactive) | > 100 µM (inactive) | > 100 µM (inactive) | > 100 µM (inactive) | > 100 µM (inactive) | > 100 µM (inactive) | > 100 µM (inactive) | > 100 µM (inactive) | – | > 100 µM (inactive) | > 100 µM (inactive) | 43.2 µM (inactive) | > 100 µM (inactive) | > 76 µM (inactive) | > 100 | > 100 µM (inactive) | > 100 µM (inactive) | 49 µM (inactive)
CC1(C)C(O)c2ccccc2OC1N1CCN(C2Oc3ccccc3C(O)C2(C)C)CC1 (centres undefined) | > 100 µM (inactive) | > 100 µM (inactive) | > 100 µM (inactive) | > 100 µM (inactive) | > 100 µM (inactive) | > 100 µM (inactive) | 30 µM (inactive) | > 100 µM (inactive) | > 100 µM (inactive) | > 100 µM (inactive) | > 100 µM (inactive) | > 100 µM (inactive) | > 10 µM (inactive) | > 100 µM (inactive) | > 100 µM (inactive) | > 100 µM (inactive) | > 100 | > 100 µM (inactive) | > 100 µM (inactive) | > 100 µM (inactive)
CC1(C)[C@H]2CC[C@@]13C(=O)N1C(=O)O[C@@H]([C@H]1Cl)C(Cl)(COCc1ccccc1)C(=O)OCCO[C@H]3C2 (some centres undefined) | 54.3 µM (inactive) | > 100 µM (inactive) | > 100 µM (inactive) | > 100 µM (inactive) | 70.6 µM (inactive) | 37.8 µM (inactive) | > 100 µM (inactive) | > 100 µM (inactive) | 95.9 µM (inactive) | 18 µM (inactive) | 38.5 µM (inactive) | 53.6 µM (inactive) | – | 24.3 µM (inactive) | 54.2 µM (inactive) | 29.9 µM (inactive) | 40.8 | 40.9 µM (inactive) | 57.3 µM (inactive) | 60.8 µM (inactive)
COc1ccc([C@@H]2C[C@@H]3C(=O)OC(=O)[C@@H]3c3c2c2ccccc2n3C)cc1 | > 100 µM (inactive) | > 100 µM (inactive) | > 100 µM (inactive) | > 100 µM (inactive) | – | > 100 µM (inactive) | > 100 µM (inactive) | > 100 µM (inactive) | > 100 µM (inactive) | > 100 µM (inactive) | > 100 µM (inactive) | – | > 100 µM (inactive) | > 100 µM (inactive) | > 100 µM (inactive) | – | – | > 100 µM (inactive) | > 100 µM (inactive) | > 100 µM (inactive)
c1ccc2c3nnc(c2c1)SCCCSc1nnc(c2ccccc12)SCCCS3 | 58.5 µM (inactive) | 32.9 µM (inactive) | 18.9 µM (inactive) | – | 72.3 µM (inactive) | > 100 µM (inactive) | 61.1 µM (inactive) | 11 µM (inactive) | > 100 µM (inactive) | > 100 µM (inactive) | > 100 µM (inactive) | 34.4 µM (inactive) | 76.7 µM (inactive) | > 100 µM (inactive) | 25.8 µM (inactive) | 23 µM (inactive) | > 100 | 71.1 µM (inactive) | > 100 µM (inactive) | 34.8 µM (inactive)
Cc1cc2c(cc1O)CC[C@@H]1[C@@H]2CC[C@]2(C)[C@@H](O)CC[C@@H]12 | 8.02 µM (inactive) | 14.9 µM (inactive) | 15.5 µM (inactive) | 16.9 µM (inactive) | 18.9 µM (inactive) | – | 18.7 µM (inactive) | – | – | 17.6 µM (inactive) | 4.32 µM (inactive) | 8.65 µM (inactive) | 24 µM (inactive) | 2.58 µM (inactive) | – | 4.67 µM (inactive) | 4.08 | 13.6 µM (inactive) | 11.4 µM (inactive) | 6.73 µM (inactive)
Cc1ccc(C(=O)C2=CN=C3C(=O)N(c4ccccc4)N(C)C3(C)C2=N)cc1 (centres undefined) | > 100 µM (inactive) | > 100 µM (inactive) | – | > 100 µM (inactive) | > 100 µM (inactive) | > 100 µM (inactive) | > 100 µM (inactive) | > 100 µM (inactive) | > 100 µM (inactive) | > 100 µM (inactive) | > 100 µM (inactive) | > 100 µM (inactive) | > 100 µM (inactive) | > 100 µM (inactive) | > 100 µM (inactive) | > 100 µM (inactive) | > 100 | > 100 µM (inactive) | > 100 µM (inactive) | > 100 µM (inactive)
O=[N+]([O-])c1ccc2nc(=S)[nH]n2c1 | > 100 µM (inactive) | > 100 µM (inactive) | > 100 µM (inactive) | > 100 µM (inactive) | > 100 µM (inactive) | > 100 µM (inactive) | > 100 µM (inactive) | > 100 µM (inactive) | > 100 µM (inactive) | > 100 µM (inactive) | > 100 µM (inactive) | > 100 µM (inactive) | > 100 µM (inactive) | > 100 µM (inactive) | – | > 100 µM (inactive) | > 100 | > 100 µM (inactive) | > 100 µM (inactive) | > 100 µM (inactive)
CC(C)(C)NC(=O)C12C3C4C1C1C2C3C41I (centres undefined) | > 100 µM (inactive) | 84.1 µM (inactive) | – | > 100 µM (inactive) | – | > 100 µM (inactive) | > 100 µM (inactive) | > 100 µM (inactive) | – | > 100 µM (inactive) | > 100 µM (inactive) | > 100 µM (inactive) | > 100 µM (inactive) | > 100 µM (inactive) | – | – | > 100 | > 100 µM (inactive) | > 100 µM (inactive) | > 100 µM (inactive)
O=C(NCc1cccnc1)NCc1cccnc1 | > 100 µM (inactive) | > 100 µM (inactive) | > 100 µM (inactive) | > 100 µM (inactive) | > 100 µM (inactive) | > 100 µM (inactive) | > 100 µM (inactive) | > 100 µM (inactive) | > 100 µM (inactive) | > 100 µM (inactive) | – | > 100 µM (inactive) | > 100 µM (inactive) | > 100 µM (inactive) | > 100 µM (inactive) | > 100 µM (inactive) | > 100 | > 100 µM (inactive) | > 100 µM (inactive) | > 100 µM (inactive)
CCN(CC)CC1CCCCN1CC(=O)N1c2ccccc2C(=O)Nc2cccnc21 (centres undefined) [OTENZEPAD] | 17 µM (inactive) | > 100 µM (inactive) | 59.2 µM (inactive) | > 100 µM (inactive) | 56 µM (inactive) | 12.2 µM (inactive) | > 100 µM (inactive) | 40.6 µM (inactive) | > 100 µM (inactive) | 23.2 µM (inactive) | 19 µM (inactive) | 59.3 µM (inactive) | > 100 µM (inactive) | – | > 100 µM (inactive) | > 100 µM (inactive) | 38.6 | 52 µM (inactive) | > 100 µM (inactive) | > 100 µM (inactive)
COc1cccc2c3cccc(OC)c3c3[nH]cnc3c12 | 1.57 µM (inactive) | 6.04 µM (inactive) | 4.54 µM (inactive) | 16.9 µM (inactive) | 8.81 µM (inactive) | 1.63 µM (inactive) | 18.1 µM (inactive) | 1.32 µM (inactive) | 14.7 µM (inactive) | 16.5 µM (inactive) | 0.923 µM (active) | 1.72 µM (inactive) | 1.65 µM (inactive) | 2.08 µM (inactive) | 13.9 µM (inactive) | – | 1.76 | 1.84 µM (inactive) | 3.46 µM (inactive) | 3.88 µM (inactive)
